# Data: patent US12421253B2 (Mirati Therapeutics, Inc., priority 2020, dated 2025)
# pIC50: −log10 of the molar value.
# How the values were obtained:
# KRas^G12C = KRas^G12C (Homo sapiens, UniProt P01116, G12C); test: biochemical
# KRas^Q61H = KRas^Q61H (Homo sapiens, UniProt P01116, Q61H); test: biochemical
# KRas^G13D = KRas^G13D (Homo sapiens, UniProt P01116, G13D); test: biochemical
# KRas^G12S = molecular target: T1, KRas^G12S (Homo sapiens, UniProt P01116, G12S); test: KRas binding assay (TR-FRET displacement of Cy5 labelled tracer)
# T1 construct: […]; biotin (biotinylated); purchased Accelegan Inc
# KRas^G12D = molecular target: T2, KRas^G12D (Homo sapiens, UniProt P01116, G12D); test: as above
# T2 construct: […]; biotin (biotinylated); purchased Accelegan Inc
# KRas^G12A = molecular target: T3, KRas^G12A (Homo sapiens, UniProt P01116, G12A); test: as above
# T3 construct: […]; biotin (biotinylated); purchased Accelegan Inc
# KRas^G12R = molecular target: T4, KRas^G12R (Homo sapiens, UniProt P01116, G12R); test: as above
# T4 construct: […]; biotin (biotinylated); purchased Accelegan Inc
# KRas^G12V = molecular target: T5, KRas^G12V (Homo sapiens, UniProt P01116, G12V); test: as above
# T5 construct: […]; biotin (biotinylated); purchased Accelegan Inc
# KRas^WT = molecular target: T6, KRas^WT (Homo sapiens, UniProt P01116); test: as above
# T6 construct: […]; biotin (biotinylated); purchased Accelegan Inc
# T6 sequence (P01116 1-169 isoform P01116-2): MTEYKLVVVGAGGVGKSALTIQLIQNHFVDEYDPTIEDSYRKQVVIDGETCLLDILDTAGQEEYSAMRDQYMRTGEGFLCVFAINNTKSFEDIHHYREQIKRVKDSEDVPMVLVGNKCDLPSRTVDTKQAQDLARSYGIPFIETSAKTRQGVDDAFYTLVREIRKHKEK
# T3 sequence (P01116 1-169 isoform P01116-2 G12A): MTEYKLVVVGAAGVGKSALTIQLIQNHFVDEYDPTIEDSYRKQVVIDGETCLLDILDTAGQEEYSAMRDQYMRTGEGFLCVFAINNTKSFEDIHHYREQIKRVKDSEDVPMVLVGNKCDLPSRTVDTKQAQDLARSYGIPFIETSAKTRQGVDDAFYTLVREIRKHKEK
# T2 sequence (P01116 1-169 isoform P01116-2 G12D): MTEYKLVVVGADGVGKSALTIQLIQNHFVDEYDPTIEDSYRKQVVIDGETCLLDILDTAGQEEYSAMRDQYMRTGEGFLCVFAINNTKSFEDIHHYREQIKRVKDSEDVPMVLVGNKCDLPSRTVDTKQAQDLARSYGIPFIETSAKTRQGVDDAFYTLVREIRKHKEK
# T4 sequence (P01116 1-169 isoform P01116-2 G12R): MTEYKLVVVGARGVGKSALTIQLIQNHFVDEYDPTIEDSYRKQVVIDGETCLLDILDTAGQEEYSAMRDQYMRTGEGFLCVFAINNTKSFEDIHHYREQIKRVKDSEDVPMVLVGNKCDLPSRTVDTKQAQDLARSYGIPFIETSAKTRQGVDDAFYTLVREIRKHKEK
# Chain of KRas^G13D (P01116 1-169 isoform P01116-2 G13D): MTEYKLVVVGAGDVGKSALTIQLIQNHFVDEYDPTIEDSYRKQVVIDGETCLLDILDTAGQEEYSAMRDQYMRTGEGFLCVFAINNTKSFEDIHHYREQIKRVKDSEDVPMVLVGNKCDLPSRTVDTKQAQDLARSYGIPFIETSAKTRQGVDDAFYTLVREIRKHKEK
# Chain of KRas^G12C (P01116 1-169 isoform P01116-2 G12C): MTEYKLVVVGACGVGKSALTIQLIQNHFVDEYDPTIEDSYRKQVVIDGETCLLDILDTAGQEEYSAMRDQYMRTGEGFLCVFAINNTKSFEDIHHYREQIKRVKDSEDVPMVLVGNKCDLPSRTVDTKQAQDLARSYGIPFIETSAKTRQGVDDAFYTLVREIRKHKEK
# T1 sequence (P01116 1-169 isoform P01116-2 G12S): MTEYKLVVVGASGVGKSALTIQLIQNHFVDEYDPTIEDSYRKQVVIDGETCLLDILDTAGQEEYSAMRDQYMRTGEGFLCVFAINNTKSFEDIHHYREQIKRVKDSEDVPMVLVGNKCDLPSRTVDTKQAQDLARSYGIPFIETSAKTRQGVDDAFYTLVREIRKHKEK
# Chain of KRas^Q61H (P01116 1-169 isoform P01116-2 Q61H): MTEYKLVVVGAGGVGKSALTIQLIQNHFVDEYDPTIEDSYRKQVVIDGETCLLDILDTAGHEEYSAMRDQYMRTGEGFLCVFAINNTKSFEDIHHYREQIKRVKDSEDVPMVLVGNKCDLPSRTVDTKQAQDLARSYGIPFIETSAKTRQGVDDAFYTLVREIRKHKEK
# T5 sequence (P01116 1-169 isoform P01116-2 G12V): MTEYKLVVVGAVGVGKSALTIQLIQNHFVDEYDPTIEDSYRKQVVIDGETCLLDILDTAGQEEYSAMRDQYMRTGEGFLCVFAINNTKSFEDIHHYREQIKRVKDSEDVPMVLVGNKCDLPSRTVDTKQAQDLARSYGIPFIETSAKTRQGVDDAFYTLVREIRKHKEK
pIC50 (KRas^G12C),pIC50 (KRas^Q61H),pIC50 (KRas^G13D),pIC50 (KRas^G12S),pIC50 (KRas^G12D),pIC50 (KRas^G12A),pIC50 (KRas^G12R),pIC50 (KRas^G12V),pIC50 (KRas^WT),Compound
6.25,5.71,5.69,6.17,6.51,5.90,6.31,6.19,5.86,"CCc1cccc2cccc(N3CCc4c(nc(OCC56CCCN5CCC6)nc4N4CCCn5nccc5C4)C3)c12 [Example 51, 4-(7,8-dihydro-4H-pyrazolo[1,5-a][1,4]diazepin-5(6H)-yl)-7-(8-ethylnaphthalen-1-yl)-2-((hexahydro-1H-pyrrolizin-7a-yl)methoxy)-5,6,7,8-tetrahydropyrido[3,4-d]pyrimidine]"
5.45,5.27,5.43,5.94,5.27,5.39,5.40,5.47,5.44,"O=C1NC(=O)C2CN(c3nc(OCC45CCCN4CCC5)nc4c3CCN(c3cccc5cccc(F)c35)C4)CC12 (stereo not drawn) [Example 81, 5-(7-(8-fluoronaphthalen-1-yl)-2-((hexahydro-1H-pyrrolizin-7a-yl)methoxy)-5,6,7,8-tetrahydropyrido[3,4-d]pyrimidin-4-yl)tetrahydropyrrolo[3,4-c]pyrrole-1,3(2H,3aH)-dione]"
7.14,7.02,7.00,7.05,7.17,7.03,6.91,7.15,6.98,"CCc1cccc2cccc(N3CCc4c(nc(OCC56CCCN5CCC6)nc4N4CCOCC(C)(O)C4)C3)c12 (stereo not drawn) [Example 22, 4-(7-(8-ethylnaphthalen-1-yl)-2-((hexahydro-1H-pyrrolizin-7a-yl)methoxy)-5,6,7,8-tetrahydropyrido[3,4-d]pyrimidin-4-yl)-6-methyl-1,4-oxazepan-6-ol]"
7.05,6.76,6.84,6.97,6.92,7.04,7.30,7.17,6.84,"CCc1cccc2cccc(N3CCc4c(nc(OCC56CCCN5CCC6)nc4N4CCCC(O)CC4)C3)c12 (stereo not drawn) [Example 7, 1-(7-(8-ethylnaphthalen-1-yl)-2-((tetrahydro-1H-pyrrolizin-7a(5H)-yl)methoxy)-5,6,7,8-tetrahydropyrido[3,4-d]pyrimidin-4-yl)azepan-4-ol]"
6.32,6.22,6.26,6.16,5.95,6.20,6.54,6.02,6.15,"CCc1cccc2cccc(N3CCc4c(nc(OCC56CCCN5CCC6)nc4N4CCCC(n5cccn5)C4)C3)c12 (stereo not drawn) [Example 82, 4-(3-(1H-pyrazol-1-yl)piperidin-1-yl)-7-(8-ethylnaphthalen-1-yl)-2-((tetrahydro-1H-pyrrolizin-7a(5H)-yl)methoxy)-5,6,7,8-tetrahydropyrido[3,4-d]pyrimidine]"
5.78,5.25,5.24,5.69,6.06,5.52,5.74,5.79,5.29,"CCc1cccc2cccc(N3CCc4c(nc(OCC56CCCN5CCC6)nc4N4CCCn5nc(C)cc5C4)C3)c12 [Example 56, 7-(8-ethylnaphthalen-1-yl)-2-((hexahydro-1H-pyrrolizin-7a-yl)methoxy)-4-(2-methyl-7,8-dihydro-4H-pyrazolo[1,5-a][1,4]diazepin-5(6H)-yl)-5,6,7,8-tetrahydropyrido[3,4-d]pyrimidine]"
5.15,4.70,4.81,4.98,5.20,4.62,5.04,5.71,4.76,"CCc1cccc2cccc(N3CCc4c(nc(OCC56CCCN5CCC6)nc4NCc4nc5ncccc5o4)C3)c12 [Example 157, 7-(8-ethylnaphthalen-1-yl)-N-(oxazolo[4,5-b]pyridin-2-ylmethyl)-2-((tetrahydro-1H-pyrrolizin-7a(5H)-yl)methoxy)-5,6,7,8-tetrahydropyrido[3,4-d]pyrimidin-4-amine]"
6.38,6.29,6.26,6.31,6.22,6.36,6.26,6.39,6.39,"CCc1cccc2cccc(N3CCc4c(nc(OCC56CCCN5CCC6)nc4N4C[C@@H](C)C[C@@H](O)C4)C3)c12 [Example 111, (3R,5S)-1-(7-(8-ethylnaphthalen-1-yl)-2-((tetrahydro-1H-pyrrolizin-7a(5H)-yl)methoxy)-5,6,7,8-tetrahydropyrido[3,4-d]pyrimidin-4-yl)-5-methylpiperidin-3-ol]"
6.28,6.16,6.23,6.59,5.89,6.34,6.61,6.69,6.27,"CCc1cccc2cccc(N3CCc4c(nc(OCC56CCCN5CCC6)nc4N4CC5CC(O)CC4C5)C3)c12 (stereo not drawn) [Example 41, 6-(7-(8-ethylnaphthalen-1-yl)-2-((hexahydro-1H-pyrrolizin-7a-yl)methoxy)-5,6,7,8-tetrahydropyrido[3,4-d]pyrimidin-4-yl)-6-azabicyclo[3.2.1]octan-3-ol]"
5.83,5.34,5.26,5.55,4.91,5.60,5.85,5.93,5.46,"CCc1cccc2cccc(N3CCc4c(nc(OCC56CCCN5CCC6)nc4Nc4cnn(CC(N)=O)c4)C3)c12 [Example 139, 2-(4-((7-(8-ethylnaphthalen-1-yl)-2-((tetrahydro-1H-pyrrolizin-7a(5H)-yl)methoxy)-5,6,7,8-tetrahydropyrido[3,4-d]pyrimidin-4-yl)amino)-1H-pyrazol-1-yl)acetamide]"
5.90,5.14,4.88,5.73,4.98,5.63,5.76,5.86,5.12,"CCc1cccc2cccc(N3CCc4c(nc(OCC56CCCN5CCC6)nc4NCc4cccnc4-n4cncn4)C3)c12 [Example 142, N-((2-(1H-1,2,4-triazol-1-yl)pyridin-3-yl)methyl)-7-(8-ethylnaphthalen-1-yl)-2-((tetrahydro-1H-pyrrolizin-7a(5H)-yl)methoxy)-5,6,7,8-tetrahydropyrido[3,4-d]pyrimidin-4-amine]"
6.19,5.83,5.80,6.04,5.75,6.06,6.25,6.02,5.71,"CCc1cccc2cccc(N3CCc4c(nc(OCC56CCCN5CCC6)nc4N4CCCC(c5cn(C)nn5)C4)C3)c12 (stereo not drawn) [Example 118, 7-(8-ethylnaphthalen-1-yl)-4-(3-(1-methyl-1H-1,2,3-triazol-4-yl)piperidin-1-yl)-2-((tetrahydro-1H-pyrrolizin-7a(5H)-yl)methoxy)-5,6,7,8-tetrahydropyrido[3,4-d]pyrimidine]"
